Experiments:
[1] = molecular target: T1, MycN (Homo sapiens, UniProt P04198); assay: Degradation of MycN protein in SK-N-BE(2) cells, JESS/Western blot of lysates; format: cell-based; settings: SKNBE2, 24 h, SKNBE2 cells, 24 h; for Dmax at 0.5 µM: read-out: % Degradation of MycN (SKNBE2) 24 h, 0.5 μM; for Dmax at 1 µM: read-out: % Degradation of MycN (SKNBE2) 24 h, 1 μM; for Dmax at 3 µM: read-out: % Degradation of MycN (SKNBE2) 24 h, 3 μM; for Dmax at 6 µM: read-out: % Degradation of MycN (SKNBE2) 24 h, 6 μM
T1 construct: endogenous in cells; host or cells: SK-N-BE(2)
T1 sequence (P04198 1-464): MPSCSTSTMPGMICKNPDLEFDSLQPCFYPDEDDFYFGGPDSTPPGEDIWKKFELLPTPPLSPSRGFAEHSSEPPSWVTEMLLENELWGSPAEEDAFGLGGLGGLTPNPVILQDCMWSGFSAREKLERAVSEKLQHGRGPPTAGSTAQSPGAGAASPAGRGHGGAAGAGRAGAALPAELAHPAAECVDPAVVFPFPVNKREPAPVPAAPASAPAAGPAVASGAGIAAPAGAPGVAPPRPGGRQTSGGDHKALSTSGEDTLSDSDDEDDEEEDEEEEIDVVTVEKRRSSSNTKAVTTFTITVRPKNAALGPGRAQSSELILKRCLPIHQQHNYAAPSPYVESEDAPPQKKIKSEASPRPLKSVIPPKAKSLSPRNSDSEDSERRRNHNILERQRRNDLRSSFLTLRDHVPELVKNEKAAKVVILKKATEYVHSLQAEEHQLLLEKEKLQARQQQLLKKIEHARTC
Protocol: (§1) For L363 cells (suspension), 1E6 cells were plated into each well of a 6 well plate. For SK-N-BE(2) cells (adherent), 5E5 cells were plated into each well of a 6 well dish. Cells were cultured for 24 hrs then treated with exemplary compounds at 0.1, 0.5, 1.0, 3.0 and 6.0 mM final assay concentrations plus DMSO control. All compounds were diluted to 10 mM in DMSO. Cells were treated with the compound for 24 hrs, then for both cell types, media containing cells were removed from wells into a 15 ml centrifuge tube, and remaining adherent SK-N-BE(2) cells were also scraped from the wells into the appropriate tubes. Tubes were centrifuged, cells were washed with PBS then re-centrifuged to pellet cells. A RIPA buffer cocktail was added to the cells on ice for 5 mins. Cell lysates were clarified by centrifugation and stored at −80 degrees until required. BCA assay was performed on each lysate to determine the protein concentration.
(§2) Once an appropriate lysate concentration and antibody concentration was determined, samples were screened in the JESS technology (Protein Simple, San Jose, CA—https://www.proteinsimple.com/jess.html).
(§3) Target protein antibodies (n-myc and c-myc) were detected in the chemi-luminescence channel and loading controls (tubulin and GAPDH) were detected using a Near Infra Red (NIR) labeled secondary antibody.
For SK-N-EB2 adherent cells, 5E5 cells in 1.9 mls media were plated into 6 well dishes and incubated for 24 hrs. Exemplary compounds were added (100 ul, 1 in 20 dilution in media) to each well (final assay concentration 6, 3, 1 and […]) together with DMSO control wells and incubated for 24 hrs. Cells were scrapped off the plate, centrifuged, washed with PBS, centrifuged, then a RIPA buffer cocktail added to the cells (100 ul), centrifuged and stored at −80 for later analysis. For L363 suspension cells, 1E6 cells were plated into 24 well dishes (950 ul media) and incubated for 24 hrs. Exemplary compounds were added (50 ul, 1 in 20 dilution in media) to each well (final assay concentration 6, 3, 1 and […]) together with DMSO control wells and incubated for 24 hrs. Cells were aspirated into tubes, centrifuged, washed with PBS, centrifuged, then a RIPA buffer cocktail added to the cells (100 ul), centrifuged and stored at −80 for later analysis.
(§4) For Western blot, a BCA (total protein) assay was run on all samples, these were then run in batches of 5 compounds plus control (DMSO) on each Western blot run—n-myc and c-myc were run in separate experiments in the chemiluminescence channel. Both tubulin and GAPDH were run as loading controls in all lanes in the near infra red channel.

[2] = molecular target: T2, MycC (Homo sapiens, UniProt P01106); assay: Degradation of MycC protein in L363 cells, JESS/Western blot of lysates; format: cell-based; settings: L-363, 24 h, L-363 cells, 24 h; for Dmax at 0.5 µM: read-out: % Degradation of MycC (L-363) 24 h, 0.5 μM; for Dmax at 1 µM: read-out: % Degradation of MycC (L-363) 24 h, 1 μM; for Dmax at 3 µM: read-out: % Degradation of MycC (L-363) 24 h, 3 μM; for Dmax at 6 µM: read-out: % Degradation of MycC (L-363) 24 h, 6 μM
T2 construct: endogenous in cells; host or cells: L363
T2 sequence (P01106 whole entry): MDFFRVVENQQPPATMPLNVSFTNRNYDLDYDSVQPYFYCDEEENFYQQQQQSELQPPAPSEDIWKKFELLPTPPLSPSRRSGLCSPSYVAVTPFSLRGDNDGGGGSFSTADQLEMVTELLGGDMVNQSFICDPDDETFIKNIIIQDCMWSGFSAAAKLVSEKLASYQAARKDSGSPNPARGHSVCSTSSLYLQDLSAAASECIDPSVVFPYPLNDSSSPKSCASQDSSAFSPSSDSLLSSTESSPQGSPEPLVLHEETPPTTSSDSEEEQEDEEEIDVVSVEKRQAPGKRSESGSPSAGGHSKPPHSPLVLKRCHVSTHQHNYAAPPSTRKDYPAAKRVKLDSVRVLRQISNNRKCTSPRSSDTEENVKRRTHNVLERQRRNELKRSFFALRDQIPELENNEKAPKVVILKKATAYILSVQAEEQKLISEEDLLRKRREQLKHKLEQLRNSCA
Protocol: as §1, with “Cells were cultured for 24 hrs then treated with exemplary compounds at 0.1, 0.5, 1.0, 3.0 and 6.0 mM final assay concentrations plus DMSO control.” left out
as §2, §3
For SK-N-EB2 adherent cells, 5E5 cells in 1.9 mls media were plated into 6 well dishes and incubated for 24 hrs. […] Cells were scrapped off the plate, centrifuged, washed with PBS, centrifuged, then a RIPA buffer cocktail added to the cells (100 ul), centrifuged and stored at −80 for later analysis. For L363 suspension cells, 1E6 cells were plated into […] (950 ul media) and incubated for 24 hrs. […] Cells were aspirated into tubes, centrifuged, washed with PBS, centrifuged, then a RIPA buffer cocktail added to the cells (100 ul), centrifuged and stored at −80 for later analysis.
as §4

Compound	Dmax at 0.5 µM [1] [%]	Dmax at 1 µM [1] [%]	Dmax at 3 µM [1] [%]	Dmax at 6 µM [1] [%]	Dmax at 0.5 µM [2] [%]	Dmax at 1 µM [2] [%]	Dmax at 3 µM [2] [%]	Dmax at 6 µM [2] [%]
CN1CC2(C1)CN(c1nccc(Nc3cc(C4CC4)[nH]n3)n1)C2 [Compound 4, N-(5-Cyclopropyl-1H-pyrazol-3-yl)-2-(6-methyl-2,6-diazaspiro[3.3]heptan-2-yl)pyrimidin-4-amine]	< 20	20 to 49	20 to 49	20 to 49	< 20	20 to 49	80 to 100	80 to 100
CN(C)CC1CCN(c2nccc(Nc3cc(C4CC4)[nH]n3)n2)CC1 [Compound 5, N-(5-Cyclopropyl-1H-pyrazol-3-yl)-2-(4-((dimethylamino)methyl)piperidin-1-yl)pyrimidin-4-amine]	–	–	–	20 to 49	< 20	< 20	20 to 49	20 to 49
c1cc(Nc2cc(C3CC3)[nH]n2)nc(N2CC3(CNC3)C2)n1 [Compound 6, N-(5-Cyclopropyl-1H-pyrazol-3-yl)-2-(2,6-diazaspiro[3.3]heptan-2-yl)pyrimidin-4-amine]	< 20	< 20	< 20	< 20	< 20	20 to 49	< 20	20 to 49
CNC[C@H]1CCN(c2nccc(Nc3cc(C4CC4)[nH]n3)n2)C1 [Compound 7, (R)—N-(5-Cyclopropyl-1H-pyrazol-3-yl)-2-(3-((methylamino)methyl)pyrrolidin-1-yl)pyrimidin-4-amine]	< 20	< 20	50 to 79	80 to 100	–	< 20	–	–
CN[C@H]1CCN(c2nccc(Nc3cc(C4CC4)[nH]n3)n2)C1 [Compound 8, (S)—N-(5-cyclopropyl-1H-pyrazol-3-yl)-2-(3-(methylamino)pyrrolidin-1-yl)pyrimidin-4-amine]	–	–	< 20	–	< 20	< 20	20 to 49	–
CN(C)[C@H]1CCN(c2nccc(Nc3cc(C4CC4)[nH]n3)n2)C1 [Compound 9, (S)—N-(5-Cyclopropyl-1H-pyrazol-3-yl)-2-(3-(dimethylamino)pyrrolidin-1-yl)pyrimidin-4-amine]	20 to 49	20 to 49	< 20	< 20	20 to 49	20 to 49	20 to 49	80 to 100
NCC1CCN(c2nccc(Nc3cc(C4CC4)[nH]n3)n2)CC1 [Compound 10, 2-(4-(aminomethyl)piperidin-1-yl)-N-(5-cyclopropyl-1H-pyrazol-3-yl)pyrimidin-4-amine]	–	20 to 49	80 to 100	80 to 100	< 20	< 20	–	20 to 49
NC[C@H]1CCN(c2nccc(Nc3cc(C4CC4)[nH]n3)n2)C1 [Compound 11, (R)-2-(3-(Aminomethyl)pyrrolidin-1-yl)-N-(5-cyclopropyl-1H-pyrazol-3-yl)pyrimidin-4-amine]	< 20	80 to 100	80 to 100	80 to 100	–	–	< 20	–
CNCC1CCN(c2nccc(Nc3cc(C4CC4)[nH]n3)n2)CC1 [Compound 12, N-(5-Cyclopropyl-1H-pyrazol-3-yl)-2-(4-((methylamino)methyl)piperidin-1-yl)pyrimidin-4-amine]	–	–	20 to 49	50 to 79	< 20	< 20	50 to 79	80 to 100
CNCC12CC(C1)N(c1nccc(Nc3cc(C4CC4)[nH]n3)n1)C2 [Compound 14, N-(5-cyclopropyl-1H-pyrazol-3-yl)-2-(4-((methylamino)methyl)-2-azabicyclo[2.1.1]hexan-2-yl)pyrimidin-4-amine]	< 20	20 to 49	20 to 49	80 to 100	20 to 49	80 to 100	80 to 100	80 to 100

Reference: US20250170130A1, “MODULATORS OF MYC FAMILY PROTO-ONCOGENE PROTEIN” (Nalo Therapeutics, priority 2022, published 2025)
